pIC50: −log10 of the molar value.
Tests used:
[1] = biological target: Vascular endothelial growth factor receptor 2 (Homo sapiens, UniProt P35968); assay: Inhibition of human N-terminal GST tagged VEGFR-2 expressed in baculovirus infected Sf9 cells using poly (Glu,Tyr) 4:1 as substrate in presence of ATP by Kinase-Glo luminescence assay
[2] = biological target: Serine/threonine-protein kinase B-raf (Homo sapiens, UniProt P15056); assay: Inhibition of human wild type BRAF by Kinase-Glo luminescence assay
CCRF-CEM = assay: Growth inhibition of human CCRF-CEM cells at 10 uM incubated for 48 hrs by sulforhodamine B assay relative to control; type: functional; conditions: read-out: GI
K562 = assay: Growth inhibition of human K562 cells at 10 uM incubated for 48 hrs by sulforhodamine B assay relative to control; type: functional; conditions: K562, 48 h, read-out: GI
MOLT-4 = assay: Growth inhibition of human MOLT4 cells at 10 uM incubated for 48 hrs by sulforhodamine B assay relative to control; type: functional; conditions: MOLT-4, 48 h, read-out: GI
RPMI-8226 = assay: Growth inhibition of human RPMI8226 cells at 10 uM incubated for 48 hrs by sulforhodamine B assay relative to control; type: functional; conditions: RPMI-8226, 48 h, read-out: GI
A549 = assay: Growth inhibition of human A549/ATCC cells at 10 uM incubated for 48 hrs by sulforhodamine B assay relative to control; type: functional; conditions: A549, 48 h, read-out: GI
EKVX = assay: Growth inhibition of human EKVX cells at 10 uM incubated for 48 hrs by sulforhodamine B assay relative to control; type: functional; conditions: read-out: GI
HOP-62 = assay: Growth inhibition of human HOP62 cells at 10 uM incubated for 48 hrs by sulforhodamine B assay relative to control; type: functional; conditions: HOP-62, 48 h, read-out: GI
NCI-H226 = assay: Growth inhibition of human NCI-H226 cells at 10 uM incubated for 48 hrs by sulforhodamine B assay relative to control; type: functional; conditions: NCI-H226, 48 h, read-out: GI
NCI-H23 = assay: Growth inhibition of human NCI-H23 cells at 10 uM incubated for 48 hrs by sulforhodamine B assay relative to control; type: functional; conditions: NCI-H23, 48 h, read-out: GI
NCI-H522 = assay: Growth inhibition of human NCI-H522 cells at 10 uM incubated for 48 hrs by sulforhodamine B assay relative to control; type: functional; conditions: NCI-H522, 48 h, read-out: GI
HCT-15 = assay: Growth inhibition of human HCT15 cells at 10 uM incubated for 48 hrs by sulforhodamine B assay relative to control; type: functional; conditions: HCT-15, 48 h, read-out: GI
KM12 = assay: Growth inhibition of human KM12 cells at 10 uM incubated for 48 hrs by sulforhodamine B assay relative to control; type: functional; conditions: KM12, 48 h, read-out: GI
SF-295 = assay: Growth inhibition of human SF295 cells at 10 uM incubated for 48 hrs by sulforhodamine B assay relative to control; type: functional; conditions: SF-295, 48 h, read-out: GI
SK-MEL-5 = assay: Growth inhibition of human SK-MEL-5 cells at 10 uM incubated for 48 hrs by sulforhodamine B assay relative to control; type: functional; conditions: SK-MEL-5, 48 h, read-out: GI
UACC-62 = assay: Growth inhibition of human UACC62 cells at 10 uM incubated for 48 hrs by sulforhodamine B assay relative to control; type: functional; conditions: UACC-62, 48 h, read-out: GI
OVCAR-4 = assay: Growth inhibition of human OVCAR4 cells at 10 uM incubated for 48 hrs by sulforhodamine B assay relative to control; type: functional; conditions: OVCAR-4, 48 h, read-out: GI
OVCAR-8 = assay: Growth inhibition of human OVCAR8 cells at 10 uM incubated for 48 hrs by sulforhodamine B assay relative to control; type: functional; conditions: OVCAR-8, 48 h, read-out: GI
NCI/ADR-RES = assay: Growth inhibition of human NCI/ADR-RES cells at 10 uM incubated for 48 hrs by sulforhodamine B assay relative to control; type: functional; conditions: read-out: GI
A498 = assay: Growth inhibition of human A498 cells at 10 uM incubated for 48 hrs by sulforhodamine B assay relative to control; type: functional; conditions: A498, 48 h, read-out: GI
ACHN = assay: Growth inhibition of human ACHN cells at 10 uM incubated for 48 hrs by sulforhodamine B assay relative to control; type: functional; conditions: read-out: GI
CAKI-1 = assay: Growth inhibition of human Caki1 cells at 10 uM incubated for 48 hrs by sulforhodamine B assay relative to control; type: functional; conditions: CAKI-1, 48 h, read-out: GI
UO-31 = assay: Growth inhibition of human UO31 cells at 10 uM incubated for 48 hrs by sulforhodamine B assay relative to control; type: functional; conditions: UO-31, 48 h, read-out: GI
PC-3 = assay: Growth inhibition of human PC3 cells at 10 uM incubated for 48 hrs by sulforhodamine B assay relative to control; type: functional; conditions: PC-3, 48 h, read-out: GI
MCF7 [3] = assay: Growth inhibition of human MCF7 cells at 10 uM incubated for 48 hrs by sulforhodamine B assay relative to control; type: functional; conditions: MCF7, 48 h, read-out: GI
T47D [4] = assay: Growth inhibition of human T47D cells at 10 uM incubated for 48 hrs by sulforhodamine B assay relative to control; type: functional; conditions: read-out: GI
MDA-MB-468 = assay: Growth inhibition of human MDA-MB-468 cells at 10 uM incubated for 48 hrs by sulforhodamine B assay relative to control; type: functional; conditions: MDA-MB-468, 48 h, read-out: GI
MCF7 [5] = assay: Cytotoxicity against human MCF7 cells expressing VEGFR2 and wild type BRAF measured after 48 hrs by sulforhodamine B assay; type: functional, cell-based; conditions: MCF7, 48 h
T47D [6] = assay: Cytotoxicity against human T47D cells expressing wild type BRAF measured after 48 hrs by sulforhodamine B assay; type: functional, cell-based
HCT-116 = assay: Growth inhibition of human HCT116 cells at 10 uM incubated for 48 hrs by sulforhodamine B assay relative to control; type: functional; conditions: HCT-116, 48 h, read-out: GI
LOX IMVI = assay: Growth inhibition of human LOXIMVI cells at 10 uM incubated for 48 hrs by sulforhodamine B assay relative to control; type: functional; conditions: read-out: GI
IGROV-1 = assay: Growth inhibition of human IGROV1 cells at 10 uM incubated for 48 hrs by sulforhodamine B assay relative to control; type: functional; conditions: IGROV-1, 48 h, read-out: GI
RXF 393 = assay: Growth inhibition of human RXF393 cells at 10 uM incubated for 48 hrs by sulforhodamine B assay relative to control; type: functional; conditions: RXF 393, 48 h, read-out: GI
MDA-MB-231 = assay: Growth inhibition of human MDA-MB-231 cells at 10 uM incubated for 48 hrs by sulforhodamine B assay relative to control; type: functional; conditions: MDA-MB-231, 48 h, read-out: GI
MCF7 [7] = assay: Inhibition of VEGFR2 level in human MCF7 cells at 10 uM measured after 48 hrs by ELISA relative to control; type: functional; conditions: MCF7, 48 h

Chain of Vascular endothelial growth factor receptor 2 (P35968 whole entry): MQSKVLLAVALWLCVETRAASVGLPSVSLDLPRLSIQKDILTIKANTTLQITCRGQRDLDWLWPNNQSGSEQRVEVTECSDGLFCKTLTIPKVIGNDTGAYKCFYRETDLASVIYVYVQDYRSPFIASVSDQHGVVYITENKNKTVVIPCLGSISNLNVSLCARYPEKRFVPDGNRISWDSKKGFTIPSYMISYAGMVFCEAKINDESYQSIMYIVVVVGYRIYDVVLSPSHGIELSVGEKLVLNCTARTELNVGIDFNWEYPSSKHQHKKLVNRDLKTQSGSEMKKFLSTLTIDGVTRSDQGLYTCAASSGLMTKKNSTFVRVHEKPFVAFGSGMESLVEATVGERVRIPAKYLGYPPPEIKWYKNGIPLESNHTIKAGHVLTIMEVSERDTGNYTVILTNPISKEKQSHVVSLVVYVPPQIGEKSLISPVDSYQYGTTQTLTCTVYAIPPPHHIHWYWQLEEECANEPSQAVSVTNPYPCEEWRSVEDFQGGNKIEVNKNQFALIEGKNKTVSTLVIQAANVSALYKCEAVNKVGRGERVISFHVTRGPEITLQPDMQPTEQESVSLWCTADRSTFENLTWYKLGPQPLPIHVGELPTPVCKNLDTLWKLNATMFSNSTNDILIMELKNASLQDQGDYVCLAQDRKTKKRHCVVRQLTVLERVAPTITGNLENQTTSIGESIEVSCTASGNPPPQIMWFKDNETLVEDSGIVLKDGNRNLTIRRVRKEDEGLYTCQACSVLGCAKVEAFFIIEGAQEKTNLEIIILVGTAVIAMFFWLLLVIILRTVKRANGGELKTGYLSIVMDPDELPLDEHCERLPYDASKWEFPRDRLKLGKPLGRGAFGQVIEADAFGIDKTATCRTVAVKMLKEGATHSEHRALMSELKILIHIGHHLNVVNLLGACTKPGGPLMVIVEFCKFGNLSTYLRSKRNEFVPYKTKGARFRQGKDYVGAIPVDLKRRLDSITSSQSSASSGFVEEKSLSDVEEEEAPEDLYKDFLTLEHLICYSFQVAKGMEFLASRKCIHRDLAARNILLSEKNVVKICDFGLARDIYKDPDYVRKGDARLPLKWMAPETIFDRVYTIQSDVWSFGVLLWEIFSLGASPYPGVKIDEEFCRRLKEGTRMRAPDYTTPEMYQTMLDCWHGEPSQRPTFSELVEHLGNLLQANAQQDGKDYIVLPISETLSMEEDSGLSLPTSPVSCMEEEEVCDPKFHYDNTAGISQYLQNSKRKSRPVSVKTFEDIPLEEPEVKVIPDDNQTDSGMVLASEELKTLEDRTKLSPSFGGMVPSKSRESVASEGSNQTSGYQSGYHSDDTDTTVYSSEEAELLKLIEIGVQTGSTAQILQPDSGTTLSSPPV
Chain of Serine/threonine-protein kinase B-raf (P15056 whole entry): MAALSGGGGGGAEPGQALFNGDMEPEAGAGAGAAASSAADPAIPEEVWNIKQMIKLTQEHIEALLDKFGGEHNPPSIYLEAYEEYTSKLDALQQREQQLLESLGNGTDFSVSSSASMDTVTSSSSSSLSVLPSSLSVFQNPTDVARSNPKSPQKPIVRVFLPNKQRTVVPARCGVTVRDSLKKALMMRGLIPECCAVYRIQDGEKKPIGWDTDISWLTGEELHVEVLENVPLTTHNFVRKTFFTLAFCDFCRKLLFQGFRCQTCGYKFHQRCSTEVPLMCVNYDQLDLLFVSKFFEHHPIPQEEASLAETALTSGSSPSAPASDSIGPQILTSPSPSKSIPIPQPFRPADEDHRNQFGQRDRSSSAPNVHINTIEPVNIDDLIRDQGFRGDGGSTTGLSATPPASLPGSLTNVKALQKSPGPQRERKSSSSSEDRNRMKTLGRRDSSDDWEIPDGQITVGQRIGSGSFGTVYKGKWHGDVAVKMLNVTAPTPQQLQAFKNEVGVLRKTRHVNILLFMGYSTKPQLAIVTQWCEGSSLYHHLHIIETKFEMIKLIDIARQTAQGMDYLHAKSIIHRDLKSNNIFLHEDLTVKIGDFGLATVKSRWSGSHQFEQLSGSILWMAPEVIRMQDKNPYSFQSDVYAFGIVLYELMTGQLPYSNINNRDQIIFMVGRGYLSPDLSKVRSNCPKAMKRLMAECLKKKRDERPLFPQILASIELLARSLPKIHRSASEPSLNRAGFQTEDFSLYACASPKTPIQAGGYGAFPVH

`CC(=O)c1ccc(Nc2ccnc(SCC(=O)c3ccc(Cl)cc3)n2)cc1` showed a pIC50 [1] of 6.66, a pIC50 [2] of 6.19 and an inhibition of growth at 10 µM (CCRF-CEM) of 29%. It also gave an inhibition of growth at 10 µM (K562) of 19%, an inhibition of growth at 10 µM (MOLT-4) of 33% and an inhibition of growth at 10 µM (RPMI-8226) of 46%. It also gave an inhibition of growth at 10 µM (A549) of 20%, an inhibition of growth at 10 µM (EKVX) of 10% and an inhibition of growth at 10 µM (HOP-62) of 14%. For the same compound, the inhibition of growth at 10 µM (NCI-H226) was 21%, the inhibition of growth at 10 µM (NCI-H23) was 13% and the inhibition of growth at 10 µM (NCI-H522) was 29%. The inhibition of growth at 10 µM (HCT-15) was 14%, the inhibition of growth at 10 µM (KM12) was 11% and the inhibition of growth at 10 µM (SF-295) was 14%. It also gave an inhibition of growth at 10 µM (SK-MEL-5) of 65%, an inhibition of growth at 10 µM (UACC-62) of 34% and an inhibition of growth at 10 µM (OVCAR-4) of 18%. It also gave an inhibition of growth at 10 µM (OVCAR-8) of 29%, an inhibition of growth at 10 µM (NCI/ADR-RES) of 46% and an inhibition of growth at 10 µM (A498) of 19%. For the same compound, the inhibition of growth at 10 µM (ACHN) was 11%, the inhibition of growth at 10 µM (CAKI-1) was 21% and the inhibition of growth at 10 µM (UO-31) was 33%. It also gave an inhibition of growth at 10 µM (PC-3) of 30%, an inhibition of growth at 10 µM (MCF7 [3]) of 19% and an inhibition of growth at 10 µM (T47D [4]) of 71%. The inhibition of growth at 10 µM (MDA-MB-468) was 27%, the pIC50 (MCF7 [5]) was 4.26 and the pIC50 (T47D [6]) was 4.84.
In the case of `COc1ccc(C(=O)CSc2nccc(Nc3ccc(N4CCOCC4)cc3)n2)cc1`, the pIC50 [1] was 6.54, the pIC50 [2] was 6.36 and the inhibition of growth at 10 µM (CCRF-CEM) was 21%. For the same compound, the inhibition of growth at 10 µM (K562) was 21%, the inhibition of growth at 10 µM (MOLT-4) was 34% and the inhibition of growth at 10 µM (RPMI-8226) was 45%. For the same compound, the inhibition of growth at 10 µM (NCI-H226) was 13%, the inhibition of growth at 10 µM (NCI-H23) was 15% and the inhibition of growth at 10 µM (NCI-H522) was 34%. The inhibition of growth at 10 µM (HCT-116) was 18%, the inhibition of growth at 10 µM (LOX IMVI) was 11% and the inhibition of growth at 10 µM (SK-MEL-5) was 53%. The inhibition of growth at 10 µM (UACC-62) was 30%, the inhibition of growth at 10 µM (IGROV-1) was 12% and the inhibition of growth at 10 µM (OVCAR-4) was 15%. It also gave an inhibition of growth at 10 µM (OVCAR-8) of 24%, an inhibition of growth at 10 µM (NCI/ADR-RES) of 24% and an inhibition of growth at 10 µM (ACHN) of 11%. The inhibition of growth at 10 µM (CAKI-1) was 16%, the inhibition of growth at 10 µM (RXF 393) was 10% and the inhibition of growth at 10 µM (UO-31) was 35%. For the same compound, the inhibition of growth at 10 µM (PC-3) was 16%, the inhibition of growth at 10 µM (MCF7 [3]) was 17% and the inhibition of growth at 10 µM (MDA-MB-231) was 11%. The inhibition of growth at 10 µM (T47D [4]) was 67%, the inhibition of growth at 10 µM (MDA-MB-468) was 13% and the pIC50 (MCF7 [5]) was 4.64. For the same compound, the pIC50 (T47D [6]) was 5.36 and the inhibition at 10 µM (MCF7 [7]) was 52%.

Source: ChEMBL document CHEMBL4396916, “Novel potent substituted 4-amino-2-thiopyrimidines as dual VEGFR-2 and BRAF kinase inhibitors” (Eur J Med Chem, 2019)
